Measured values: paper PMC2572143, “Androgen Receptor Functional Analyses by High Throughput Imaging: Determination of Ligand, Cell Cycle, and Mutation-Specific Effects” (PLoS ONE, 2008)
Positions count from the first letter of the chain named. Like-named read-outs stand apart in the source and are kept apart here.

Experiments:
[1] = target: T1, GFP-AR (wild type androgen receptor) (Homo sapiens, UniProt P10275); experiment: HT imaging multiplex assay, all three parameters together (FLIN, NVAR, CORR2), HeLa GFP-AR
T1 sequence (P10275 1-920): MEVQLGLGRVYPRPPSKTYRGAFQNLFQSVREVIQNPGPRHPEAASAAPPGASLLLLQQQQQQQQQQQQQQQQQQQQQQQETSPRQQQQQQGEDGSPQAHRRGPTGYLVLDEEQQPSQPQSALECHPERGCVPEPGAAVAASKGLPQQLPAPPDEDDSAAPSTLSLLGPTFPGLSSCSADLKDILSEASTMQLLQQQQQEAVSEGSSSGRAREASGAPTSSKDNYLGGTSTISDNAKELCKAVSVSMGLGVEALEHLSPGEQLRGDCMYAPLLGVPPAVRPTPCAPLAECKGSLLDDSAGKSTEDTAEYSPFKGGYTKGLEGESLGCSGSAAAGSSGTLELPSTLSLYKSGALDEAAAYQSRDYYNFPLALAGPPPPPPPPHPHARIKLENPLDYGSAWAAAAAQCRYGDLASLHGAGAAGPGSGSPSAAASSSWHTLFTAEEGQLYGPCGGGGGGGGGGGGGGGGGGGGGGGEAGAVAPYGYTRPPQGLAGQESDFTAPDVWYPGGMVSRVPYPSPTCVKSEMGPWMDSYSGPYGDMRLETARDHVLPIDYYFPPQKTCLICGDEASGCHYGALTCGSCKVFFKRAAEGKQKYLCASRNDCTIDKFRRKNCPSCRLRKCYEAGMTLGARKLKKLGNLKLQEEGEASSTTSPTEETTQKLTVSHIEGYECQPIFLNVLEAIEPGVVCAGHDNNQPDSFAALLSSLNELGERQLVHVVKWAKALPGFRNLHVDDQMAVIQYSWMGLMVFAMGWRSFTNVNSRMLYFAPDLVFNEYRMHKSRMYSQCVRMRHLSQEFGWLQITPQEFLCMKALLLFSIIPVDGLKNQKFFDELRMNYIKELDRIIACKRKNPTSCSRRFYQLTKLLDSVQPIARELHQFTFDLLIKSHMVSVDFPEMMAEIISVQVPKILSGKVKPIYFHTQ
Description: (§1) In general, 49 images were captured per well for image analysis.

[2] = target: T1, GFP-AR (wild type androgen receptor); experiment: HT imaging: AR nuclear hyperspeckling (NVAR) in stable HeLa GFP-AR cells
Description: as §1

[3] = target: T2, GFP-AR T877A (LNCaP mutation) (Homo sapiens, UniProt P10275, T878A); experiment: HT imaging multiplex assay, all measurements together, HeLa GFP-AR T877A; type: cell-based
T2 construct: expressed in transfected cells
T2 sequence (P10275 1-920 T878A): T1 sequence (P10275 1-920) with T878A

[4] = target: T1, GFP-AR (wild type androgen receptor); experiment: HT imaging: pARR2PB-dsRED2skl transcriptional reporter gene activity (CORR2) in stable HeLa GFP-AR cells; type: cell-based; design: expressed in transfected cells
Text: Cells were imaged in PBS.

HeLa GFP-AR cells = experiment: Cell cycle analysis by DNA content (DAPI)/EdU incorporation in unsynchronized cells; type: cell-based, human; conditions: for EC50: Homo sapiens, HeLa, 18 h
Description: To perform these studies, we simplified the HCS cell cycle analysis techniques described by Gesparri et al. to a DNA content (DAPI)/EdU incorporation biparametric analysis to identify G1, S phase, and G2 cells in unsynchronized growing cells (Fig. 6A). Cells were prepared as normal except with a brief 30 minute exposure to 10 µM EdU, which will incorporate into newly synthesized DNA similar to BrdU, prior to fixation. During image analysis, total nuclear DAPI signal (DNA) and mean nuclear EdU signal from each cell was quantified and used to determine cell cycle.
For experiments in which cell cycle effects were determined, cells were labeled using an Invitrogen Click-iT cell cycle analysis kit using supplied protocols. Prior to fixation, cells were exposed to 10 µM EdU for 30 minutes. Cells with EdU incorporation were labeled by an EdU specific antibody conjugated to an A647 florescent marker. Because the Click-iT labeling decreases GFP signal intensity, AR was labeled using an Anti-AR antibody (Dr. Nancy Weigel) and A488 secondary antibody (Molecular Probes).

[5] = target: T1, GFP-AR (wild type androgen receptor); experiment: HT imaging: AR nuclear translocation (FLIN) in stable HeLa GFP-AR cells
Description: as §1

[6] = target: T3, GFP-AR F764L (AIS mutation) (Homo sapiens, UniProt P10275, F765L); experiment: HT imaging multiplex assay, all three parameters together, HeLa GFP-AR F764L; type: cell-based; conditions: read-out: maximal responses (three parameters), % of that observed with WT AR
T3 construct: expressed in transfected cells
T3 sequence (P10275 1-920 F765L): T1 sequence (P10275 1-920) with F765L

CC(C)(C)CC(C)(C)c1ccc(O)cc1 [Octophenol]
response on any of the three parameters measured (in words) ([1]; compound alone): did not yield a significant response | response on any of the three parameters / AR antagonistic activity (in words) ([1]; with 10 nM R1881 (competition)): did not yield a significant response

CC(C)(O)C(=O)Nc1ccc([N+](=O)[O-])c(C(F)(F)F)c1 [OHF, o-hydroxyflutamide]
induction of nuclear hyperspeckling (in words) ([2]; compound alone): no significant hyperspeckling | concentration at which agonist effect / activation of the T877A mutant is observed ([3]; compound alone): 75 to 85 nM | induction of transcriptional reporter gene activity (in words) ([4]; compound alone): no significant hyperspeckling or induction of transcription | effect on the cell cycle (in words) (HeLa GFP-AR cells; 18 hr treatment): did not have any appreciable effect on the cell cycle

CC(C)=CC(=O)O[C@H]1Cc2cc3ccc(=O)oc3cc2OC1(C)C [Decursin]
EC50 [5]: 0.853 ± 0.0884 µM | IC50 [5]: 13.2 ± 0.152 µM | decrease in R1881-induced nuclear translocation ([5]; with 10 nM R1881): 95% | IC50 [2]: 12.3 ± 0.43 µM | reduction/loss of agonist-induced hyperspeckling (NVAR) ([2]; with 10 nM R1881): 94% | IC50 [4]: 10.6 ± 0.865 µM | decrease in transcriptional reporter gene activity (dsRED2skl reporter signal) ([4]; with 10 nM R1881): 45%

C[C@@H]1CC2=CC(=O)CC[C@@H]2[C@H]2CC[C@@]3(C)[C@@H](CC[C@]3(C)O)[C@@H]21 [Mibolerone, mibolerone]
Emax [6]: 85 to 105% | difference of results from those observed with WT-AR ([3]; compound alone): ≤ 1%

C[C@]1(O)CC[C@H]2[C@@H]3CCC4=CC(=O)CCC4=C3C=C[C@@]21C [R1881, Methyltrienolone]
cells with a majority of the GFP signal in the nucleus [5]: 95–97% | more AR in the nucleus in G2 cells compared to G1 cells [5]: 8–12% | time AR distribution remained nuclear after ligand pulse [5]: up to 15 hr | Emax [6]: 40 to 60% | concentration at which saturation of response is observed ([1]; FLIN, NVAR, CORR2, titration 10−6 M to 10−11 M): ≈ 100 nM | difference of results from those observed with WT-AR [3]: ≤ 1% | S % (I + II) (HeLa GFP-AR cells; 100 nM, untreated control 42.6): 0.7% | EC50 (HeLa GFP-AR cells; read-out: EC50 of G1/S block): 0.1 ± 0.03 nM | EC50 (HeLa GFP-AR cells; read-out: EC50 of reduction in S-phase cells): 0.07 ± 0.02 nM
